From patent US8722654B2, “Lipoxin analogs as novel inhibitors of angiogenesis” (The Brigham and Women's Hospital, Inc., priority 2001, dated 2014) come the findings set out here.

What all share (type): in vivo, BALB/c mice
Assay [1] has as its system VEGFR-3. Description: VEGFR-3 mRNA in inflamed corneas, real-time PCR. Particulars: vs vehicle-treated controls. How it is done:
(§1) The standard model for induction of inflammatory corneal NV is associated with development of intrastromal vessels in close association with a mixed-cell (primarily neutrophilic) infiltrate. (43,44) Three interrupted sutures (11-0 nylon, Sharpoint; Vanguard, Houston, Tex.) were placed intrastromally with two stromal incursions extending over 120° of the corneal circumference each to induce inflammatory corneal NV, which is also associated with significant LA, as described previously. (43) The corneas were followed by slit-lamp biomicroscopy for corneal NV development. […]
(§2) BALB/c mice were randomized to receive ATLa, or vehicle (normal saline) by subconjunctival injection in a masked fashion after suture or hydron pellet placement. […] (49) The physical properties were monitored routinely via LC/MS/MS matching the reported biological and physical properties prior to analysis in present experiments. […]
(§3) 1 μl of total cDNA, synthesized from 400 ng total RNA with random hexamers using Superscript™ III Reverse Transcriptase (Invitrogen, Carlsbad, Calif.), was loaded in each well and assays were performed in triplicates. […] The results were analyzed by comparative threshold cycle (CT) method. The relative expression level of each sample was expressed as fold change from normal control.

Assay [2] concerns VEGF-A. The experiment in a line: VEGF-A mRNA in inflamed corneas, real-time PCR. Particulars: 24 h and 72 h after suture placement. How it is done: as §1, §2, §3
In general terms: Real-time PCR tracks product formation cycle by cycle.

The test system of assay [3] is mouse IL-1 beta. The experiment in a line: IL-1β protein in inflamed corneas, ELISA. As to the method: FIG. 13, ATLa Regulates IL-1β. Mice were treated at 0 h and 48 h after suture-placement with ATLa or vehicle. Whole corneas were excised at 72 h, and subsequently freeze-thawed 3 times. Cornea was then homogenized using a pellet pestile motor with additional protease inhibitors. Homogenates were centrifuged at 12,000 rpm for 5 minutes and the supernatant was assayed for mouse IL-1 beta via ELISA (eBioscience, USA) according to the manufacturer's instructions.
as §1
(§4) BALB/c mice were randomized to receive ATLa, or vehicle (normal saline) by subconjunctival injection in a masked fashion after suture or hydron pellet placement. […] (49) The physical properties were monitored routinely via LC/MS/MS matching the reported biological and physical properties prior to analysis in present experiments.

For assay [4], the system named is IL-1α. Description: IL-1α mRNA in inflamed corneas, real-time PCR. Particulars: 24 h and 72 h. How it is done:
as §1, §2, §3

The test system of assay [5] is VEGF-C. Description: VEGF-C mRNA in inflamed corneas, real-time PCR. Particulars: 24 h and 72 h after suture placement. As to the method: as §1, §2, §3
Assay [6] deals with IL-1β-induced corneal HA and LA. The experiment in a line: Corneal micropocket assay, IL-1β pellet. Particulars: IL-1β micropellet. As to the method:
(§5) The corneal micropocket assay in mice and quantification of the resultant NV has been described previously. (45,46) In brief, 0.3 μl of hydron pellets (IFN Sciences, New Brunswick, N.J.) containing 30 ng of murine IL-1β (R&D Systems, Minneapolis, Minn.) or 200 ng of VEGF-A (gift from BRB Preclinical Repository, National Cancer Institute) were prepared and implanted into the corneal stroma of male BALB/c mice. After 7 days the animals were sacrificed and the corneas were harvested for quantitative analysis of HA and LA.
as §4
(§6) Full thickness corneal tissue or 8 μm-frozen sections were fixed in acetone for 15 minutes at room temperature. […] Finally, the samples were covered with mounting medium (Vector Laboratories, Burlingame, Calif.) and analyzed by epifluorescence microscopy (Eclipse E800; Nikon, Tokyo, Japan). […]
(§7) To quantify corneal angiogenesis, digital pictures of corneal flat-mounts were taken using an image analysis system (Spot Image Analysis, Diagnostic Instruments, Sterling Heights, Mich.). […]

The subject of assay [7] is IL-1β. Description: IL-1β mRNA in inflamed corneas, real-time PCR. Particulars: vs vehicle-treated controls. How it is done: as §1, §2, §3
For assay [8], the system named is suture-induced corneal NV. Description: Suture-induced inflammatory corneal angiogenesis (HA and LA). How it is done: (§8) Six to eight-week-old male BALB/c (Taconic Farms, Germantown, N.Y.) mice were used in all experiments. All experimental protocols were approved by the Schepens Eye Research Institute Animal Care and Use Committee, and all animals were treated according to the Association for Research in Vision and Ophthalmology Statement for the Use of Animals in Ophthalmic and Vision Research.
as §1, §4, §6
To quantify corneal angiogenesis, digital pictures of corneal flat-mounts were taken using an image analysis system (Spot Image Analysis, Diagnostic Instruments, Sterling Heights, Mich.). The areas covered by CD31^high/LYVE-1^−-vessels (blood vessels) or CD31^lowLYVE-1^high vessels (lymphatics) were measured morphometrically using NIH Image J software (version 1.34s; http://rsb.info.nih.gov/ij). […] The vessel density was calculated by the proportion of neovascularized area to the whole corneal area.

Assay [9] concerns VEGF-D. Description: VEGF-D mRNA in inflamed corneas, real-time PCR. Particulars: vs vehicle-treated controls. How it is done:
as §1, §2, §3

Assay [10] deals with TNF-α. The experiment in a line: TNF-α mRNA in inflamed corneas, real-time PCR. How it is done: as §1, §2, §3
Assay [11] has as its system VEGFR-2. The experiment in a line: VEGFR-2 mRNA in inflamed corneas, real-time PCR. Particulars: 24 h and 72 h after suture placement. How it is done:
as §1, §2, §3

For assay [12], the system named is inflamed corneas. The experiment in a line: Neutrophil and macrophage infiltration in suture-inflamed corneas. How it is done:
as §8
The standard model for induction of inflammatory corneal NV is associated with development of intrastromal vessels in close association with a mixed-cell (primarily neutrophilic) infiltrate. (43,44) Three interrupted sutures (11-0 nylon, Sharpoint; Vanguard, Houston, Tex.) were placed intrastromally with two stromal incursions extending over 120° of the corneal circumference each to induce inflammatory corneal NV, which is also associated with significant LA, as described previously. (43) The corneas were followed by slit-lamp biomicroscopy for corneal NV development. NV was graded between 0 and 3, with increments of 0.5, using a grid system per each corneal quadrant based on the centripetal extent of the neovascular branches from the limbus. Scores for each quadrant then summed to derive the NV index (range 0 to 12) for each eye, as previously described. (43)
BALB/c mice were randomized to receive ATLa, or vehicle (normal saline) by subconjunctival injection in a masked fashion after suture or hydron pellet placement. The compounds were administered at a dose of 100 ng/10 μl per mouse every 48 h after suture or pellet placed. ATLa was synthesized as described previously. (49) The physical properties were monitored routinely via LC/MS/MS matching the reported biological and physical properties prior to analysis in present experiments.
Full thickness corneal tissue or 8 μm-frozen sections were fixed in acetone for 15 minutes at room temperature. To block non-specific staining, anti-FcR mAb ([…], FcγIII/II receptor) or 10% goat serum was used before primary antibodies or isotype-matched control antibodies were applied at 4° C. overnight. Thereafter, samples were incubated with secondary antibodies at RT. Each step was followed by three thorough washings in PBS for 5-10 minutes. Finally, the samples were covered with mounting medium (Vector Laboratories, Burlingame, Calif.) and analyzed by epifluorescence microscopy (Eclipse E800; Nikon, Tokyo, Japan). The following antibodies were used: FITC-conjugated rat anti-mouse CD31 (Santa Cruz Biotechnology, Santa Cruz, Calif.), purified rat anti-mouse neutrophil (NIMP-R14, Abcam, Cambridge, Mass.), purified rat anti-mouse F4/80 (Novus Biologicals, Littleton, Colo.) and purified rabbit anti-mouse LYVE-1 (Abcam, Cambridge, Mass.). The secondary antibodies were Rodamine-conjugated donkey anti-rabbit IgG and Rodamine-conjugated goat anti-rat IgG (Santa Cruz Biotechnology, Santa Cruz, Calif.). Isotype controls included FITC-conjugated rat IgG2a, purified rat IgG2b, and purified rabbit IgG (Santa Cruz Biotechnology, Santa Cruz, Calif.).

Assay [13] has as its system VEGF-A-induced corneal HA and LA. Description: Corneal micropocket assay, VEGF-A pellet. Particulars: VEGF-A micropellet. How it is done: as §5, §4, §6, §7
Where [14] appears, read: 72 h after suture placement, n=3.

Consider `COC(=O)CCC[C@H](O)[C@H](O)/C=C/C=C/C=C\C=C\[C@H](O)COc1ccc(F)cc1` [ATLa, 15-epi-16-(para-fluoro)-phenoxy-lipoxin A4 methyl ester], for which, in assay [1], the “mRNA expression of VEGFR-3” value is “not significantly altered”. Further, in assay [2], the “mRNA expression of VEGF-A” value is listed as “lower mRNA expressions”. Moreover, the “IL-1 beta in corneas” value in assay [3] (72 h, treated at 0 h and 48 h, n=4) turned out to be 21.3 ± 0.8 pg/mL. Further, the “decrease in IL-1β protein level” value in assay [3] (vs vehicle-treated group) was 70%. Also, in assay [4], the “expression of IL-1α” value was “not significantly altered”. Besides, the “mRNA expression of VEGF-C” value in [5] is recorded as “lower mRNA expressions”. Also, the LA entry in assay [6] (day 7) and in assay [13] (day 7) was “no significant reduction” each time. For the same compound, the BV density worked out at 16.1±3.0% in assay [6] (day 7, n=4); 8.26±0.63% in assay [8] (day 14 after suture placement, n=6); 5.9±0.4% in assay [13] (day 7, n=4). Also, in assay [7], the “reduction in the increase of IL-1β expression levels” value is on record as “more than 50%”. In assay [8] (2-week time course), the “growth of corneal neovessels, slit lamp biomicroscopy” value is on record as “significant suppression of the angiogenic response”. The “density of lymphatic vessels” value in assay [8] (day 14, vs vehicle) was “not observed”. In assay [9], the “mRNA expression of VEGF-D” value is listed as “not significantly altered”. The “increase in TNF-α expression” value is listed as “significantly suppressed” in assay [10] (24 h) and “not at 72 h” in assay [10] (72 h). Moreover, in assay [11], the “mRNA expression of VEGFR-2” value is “lower mRNA expressions”. The “inhibition of neutrophils recruitment” value in assay [12] (24 and 72 h, 100 ng subconjunctival at 0 and 48 h) is around 30%. Also, the neutrophils was 53±1 cells/section in assay [12] (24 h after suture placement, n=3) and 34±5 cells/section in [12] (setting [14]). In [12] (72 h, vs vehicle), the “reduction in macrophage infiltration” value is 25-40%. For the same compound, in assay [12] (setting [14]), the macrophage is 46±5 cells/section.
